# From publication PMC9090415, “Discovery of small molecule inhibitors of Plasmodium falciparum apicoplast DNA polymerase” (Journal of Enzyme Inhibition and Medicinal Chemistry, 2022)
# Read-outs that look alike come from different tables or passages of the source.
# Assays:
# [1] = target: P. falciparum apicoplast DNA polymerase (Pf-apPOL) (Plasmodium falciparum, UniProt Q8ILY1); assay: Fluorescence-based high-throughput DNA polymerase assay (molecular beacon), primary screen and dose-response; format: biochemical;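 as to % inhibition ApPOL 90': test concentration in µM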;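 as to % inhibition apPOL 180': test concentration in µM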
# Sequence of P. falciparum apicoplast DNA polymerase (Pf-apPOL) (Q8ILY1 entry or part of it): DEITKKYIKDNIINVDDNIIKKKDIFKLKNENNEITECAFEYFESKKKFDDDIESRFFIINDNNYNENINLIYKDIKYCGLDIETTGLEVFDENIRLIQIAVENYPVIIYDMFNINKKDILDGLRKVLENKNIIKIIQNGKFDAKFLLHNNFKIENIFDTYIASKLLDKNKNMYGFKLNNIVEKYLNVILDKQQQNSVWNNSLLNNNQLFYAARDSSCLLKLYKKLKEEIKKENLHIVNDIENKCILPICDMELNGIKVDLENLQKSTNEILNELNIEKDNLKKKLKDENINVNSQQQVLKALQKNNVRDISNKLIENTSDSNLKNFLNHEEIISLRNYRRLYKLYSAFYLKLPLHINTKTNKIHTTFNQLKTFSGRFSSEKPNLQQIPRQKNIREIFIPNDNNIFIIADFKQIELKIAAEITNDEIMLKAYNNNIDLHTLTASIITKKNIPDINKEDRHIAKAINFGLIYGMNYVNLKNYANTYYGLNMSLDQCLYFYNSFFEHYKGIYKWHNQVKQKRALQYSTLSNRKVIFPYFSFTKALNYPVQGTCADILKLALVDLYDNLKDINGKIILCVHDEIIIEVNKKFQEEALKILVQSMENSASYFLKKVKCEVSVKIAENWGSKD
# Procedure, shortened: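 Single-point screening used 10 µM compound with 20 nM polymerase, 20 nM hairpin substrate and 6 µM dNTPs for 90 min at 25 °C. Confirmatory titrations (2.5–80 µM) followed fluorescence at three times, and IC50 was derived from a fit including a cooperativity term n.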
# [2] = test system: chloroquine resistant P. falciparum parasites (strain Dd2); assay: Parasite growth inhibition assay in human red blood cells (flow cytometry, acridine orange); format: cell-based; conditions: Plasmodium falciparum, Erythrocyte
# Experimental: The chloroquine resistant P. falciparum parasites (strain Dd2) were cultured in de-identified, IRB-exempt human red blood cells (RBCs) obtained from the American Red Cross and parasite cultures were maintained as described. Parasitaemia (percentage of total RBCs infected) was measured by flow cytometry on an Attune NxT (ThermoFisher) by nucleic-acid staining of cultured RBCs with phosphate-buffered saline (PBS) containing 0.8 µg ml^−1 acridine orange. We began by determining percent growth inhibition at single compound dose (20 µM) for the 102 non-toxic compounds. […] The experiments were initiated with a starting parasitaemia of ∼1% and parasitaemia was measured 72 and 96 h post compound addition. Growth was normalised to parasite cultures with carrier only (DMSO).
# We tested the ability of the 102 compounds to kill P. falciparum parasites cultured in human red blood cells. Due to the number of compounds, we used a single inhibitor concentration of 20 µM and performed experiments in triplicate. […] These compounds were then tested in a dose-response format against chloroquine resistant P. falciparum parasites (Dd2) and the resulting data were fit to a sigmoidal growth inhibition curve to determine EC50 values (Figure 5, Table 2). […] Finally, to determine if the compounds were killing the parasites solely via apicoplast disruption, the dose-response curves were also performed with 1 mM isopentylpyrophosphate (IPP) in the growth media (Table 2). […] Very little is known regarding mitochondrial DNA replication in P. falciparum; however, signal sequence identification algorithms have predicted that the other bacterial A-family DNA polymerase residing in P. falciparum is targeted to the mitochondria (PF3D7_0625300)[29]. […] We are currently in the process of cloning and expressing this putative mitochondrial DNA polymerase to determine the effect of these compounds on its activity.
smiles,measurement,setting,value
CC(C)(C)c1cc(C(=O)C(C#N)=NNc2cccc(Cl)c2)no1 [Molecule 98],IC50,[1]; read-out: IC50 Pf-apPOL; Table 2,8 ± 2 µM
same,IC50,"[1]; supplemental file 2, sheet IC50 nontoxic compounds; Pf-apPOL",8.45 µM
same,EC50,"[2]; Dd2 parasites in human RBCs, dose-response, no IPP, read-out: EC50",16 ± 1 µM
same,EC50,"[2]; Dd2 parasites, 1 mM isopentylpyrophosphate (IPP) in the growth media, read-out: EC50 + IPP",11 ± 1 µM
"COc1ccc(C)cc1NC(=O)Cn1ccc2c(=O)[nH]ccc21 [Molecule 15, COc1ccc(cc1NC(=O)Cn1ccc2c1cc[nH]c2=O)C]",% inhibition Apo pol 10',[1]; DRC-1; 10'; concentration 2.5,1.7584%
same,% inhibition Apo pol 10',[1]; DRC-1; 10'; concentration 5,31.9729%
same,% inhibition Apo pol 10',[1]; DRC-1; 10'; concentration 10,59.9251%
same,% inhibition Apo pol 10',[1]; DRC-1; 10'; concentration 20,81.9832%
same,% inhibition Apo pol 10',[1]; DRC-1; 10'; concentration 40,82.3162%
same,% inhibition Apo pol 10',[1]; DRC-1; 10'; concentration 80,74.4719%
same,% inhibition Apol 90',[1]; DRC-1; 90'; concentration 2.5,-2.786%
same,% inhibition Apol 90',[1]; DRC-1; 90'; concentration 5,18.8368%
same,% inhibition Apol 90',[1]; DRC-1; 90'; concentration 10,46.9508%
same,% inhibition Apol 90',[1]; DRC-1; 90'; concentration 20,77.5716%
same,% inhibition Apol 90',[1]; DRC-1; 90'; concentration 40,84.7552%
same,% inhibition Apol 90',[1]; DRC-1; 90'; concentration 80,84.8173%
same,% inhibition apPOL 180',[1]; DRC-1; 180'; concentration 2.5,-5.413%
same,% inhibition apPOL 180',[1]; DRC-1; 180'; concentration 5,6.847%
same,% inhibition apPOL 180',[1]; DRC-1; 180'; concentration 10,30.4146%
same,% inhibition apPOL 180',[1]; DRC-1; 180'; concentration 20,67.1672%
same,% inhibition apPOL 180',[1]; DRC-1; 180'; concentration 40,81.3984%
same,% inhibition apPOL 180',[1]; DRC-1; 180'; concentration 80,86.595%
same,% inhibition Apo pol 5',[1]; DRC-2; 5'; concentration 2.5,1.82%
same,% inhibition Apo pol 5',[1]; DRC-2; 5'; concentration 5,24%
same,% inhibition Apo pol 5',[1]; DRC-2; 5'; concentration 10,47%
same,% inhibition Apo pol 5',[1]; DRC-2; 5'; concentration 20,44%
same,% inhibition Apo pol 5',[1]; DRC-2; 5'; concentration 40,34%
same,% inhibition Apo pol 5',[1]; DRC-2; 5'; concentration 80,8%
same,% inhibition Apol 40',[1]; DRC-2; 40'; concentration 2.5,0.779%
same,% inhibition Apol 40',[1]; DRC-2; 40'; concentration 5,28%
same,% inhibition Apol 40',[1]; DRC-2; 40'; concentration 10,63%
same,% inhibition Apol 40',[1]; DRC-2; 40'; concentration 20,65%
same,% inhibition Apol 40',[1]; DRC-2; 40'; concentration 40,60%
same,% inhibition Apol 40',[1]; DRC-2; 40'; concentration 80,46%
same,% inhibition ApPOL 90',[1]; DRC-2; 90'; concentration 2.5,-0.827%
same,% inhibition ApPOL 90',[1]; DRC-2; 90'; concentration 5,24%
same,% inhibition ApPOL 90',[1]; DRC-2; 90'; concentration 10,64%
same,% inhibition ApPOL 90',[1]; DRC-2; 90'; concentration 20,67%
same,% inhibition ApPOL 90',[1]; DRC-2; 90'; concentration 40,66%
same,% inhibition ApPOL 90',[1]; DRC-2; 90'; concentration 80,55%
same,% inhibition apPOL 180',[1]; DRC-2; 180'; concentration 2.5,-8%
same,% inhibition apPOL 180',[1]; DRC-2; 180'; concentration 5,12%
same,% inhibition apPOL 180',[1]; DRC-2; 180'; concentration 10,58%
same,% inhibition apPOL 180',[1]; DRC-2; 180'; concentration 20,66%
same,% inhibition apPOL 180',[1]; DRC-2; 180'; concentration 40,72%
same,% inhibition apPOL 180',[1]; DRC-2; 180'; concentration 80,64%
same,% inhibition Apo pol 5',[1]; conc. 5; 5'; DRC-2,24%
same,% inhibition ApPOL 90',[1]; conc. 5; 90'; DRC-2,24%
same,% inhibition ApPOL 90',[1]; conc. 10; 90'; DRC-2,64%
same,% inhibition apPOL 180',[1]; conc. 20; 180'; DRC-2,66%
same,% inhibition ApPOL 90',[1]; conc. 40; 90'; DRC-2,66%
same,% inhibition apPOL 180',[1]; conc. 80; 180'; DRC-2,64%
same,DNA Pol,"[1]; primary screen value by plate and well; 90 min, 10 µM",73
same,DNA Pol,"[1]; primary screen value of the 186 hits; unit not given; 90 min, 10 µM",73
O=[N+]([O-])c1cc2c(cc1CN1CCCCCC1)OCO2 [KU0004987],DNA Pol,"[1]; 'DNA Pol'; screening value, unit not given; 90 min, 10 µM",33
same,% inhibition Apo pol 10',[1]; DRC-1; 10'; concentration 2.5,6.817%
same,% inhibition Apo pol 10',[1]; DRC-1; 10'; concentration 5,8.194%
same,% inhibition Apo pol 10',[1]; DRC-1; 10'; concentration 10,20.8655%
same,% inhibition Apo pol 10',[1]; DRC-1; 10'; concentration 20,39.2503%
same,% inhibition Apo pol 10',[1]; DRC-1; 10'; concentration 40,59.1088%
same,% inhibition Apo pol 10',[1]; DRC-1; 10'; concentration 80,75.1762%
same,% inhibition Apol 90',[1]; DRC-1; 90'; concentration 2.5,1.395%
same,% inhibition Apol 90',[1]; DRC-1; 90'; concentration 5,-0.8625%
same,% inhibition Apol 90',[1]; DRC-1; 90'; concentration 10,9.436%
same,% inhibition Apol 90',[1]; DRC-1; 90'; concentration 20,21.3205%
same,% inhibition Apol 90',[1]; DRC-1; 90'; concentration 40,39.3126%
same,% inhibition Apol 90',[1]; DRC-1; 90'; concentration 80,55.7488%
same,% inhibition apPOL 180',[1]; DRC-1; 180'; concentration 2.5,-4.392%
same,% inhibition apPOL 180',[1]; DRC-1; 180'; concentration 5,-7.266%
same,% inhibition apPOL 180',[1]; DRC-1; 180'; concentration 10,1.794%
same,% inhibition apPOL 180',[1]; DRC-1; 180'; concentration 20,10.6731%
same,% inhibition apPOL 180',[1]; DRC-1; 180'; concentration 40,27.0699%
same,% inhibition apPOL 180',[1]; DRC-1; 180'; concentration 80,43.7361%
same,% inhibition Apo pol 5',"[1]; DRC-2, 5', concentration 2.5",17%
same,% inhibition Apo pol 5',"[1]; DRC-2, 5', concentration 5",20%
same,% inhibition Apo pol 5',"[1]; DRC-2, 5', concentration 10",32%
same,% inhibition Apo pol 5',"[1]; DRC-2, 5', concentration 20",39%
same,% inhibition Apo pol 5',"[1]; DRC-2, 5', concentration 40",46%
same,% inhibition Apo pol 5',"[1]; DRC-2, 5', concentration 80",49%
same,% inhibition Apol 40',"[1]; DRC-2, 40', concentration 2.5",13%
same,% inhibition Apol 40',"[1]; DRC-2, 40', concentration 5",15%
same,% inhibition Apol 40',"[1]; DRC-2, 40', concentration 10",22%
same,% inhibition Apol 40',"[1]; DRC-2, 40', concentration 20",29%
same,% inhibition Apol 40',"[1]; DRC-2, 40', concentration 40",39%
same,% inhibition Apol 40',"[1]; DRC-2, 40', concentration 80",49%
same,% inhibition ApPOL 90',"[1]; DRC-2, 90', concentration 2.5",9%
same,% inhibition ApPOL 90',"[1]; DRC-2, 90', concentration 5",9%
same,% inhibition ApPOL 90',"[1]; DRC-2, 90', concentration 10",16%
same,% inhibition ApPOL 90',"[1]; DRC-2, 90', concentration 20",23%
same,% inhibition ApPOL 90',"[1]; DRC-2, 90', concentration 40",33%
same,% inhibition ApPOL 90',"[1]; DRC-2, 90', concentration 80",45%
same,% inhibition apPOL 180',"[1]; DRC-2, 180', concentration 2.5",0.644%
same,% inhibition apPOL 180',"[1]; DRC-2, 180', concentration 5",0.589%
same,% inhibition apPOL 180',"[1]; DRC-2, 180', concentration 10",6%
same,% inhibition apPOL 180',"[1]; DRC-2, 180', concentration 20",10%
same,% inhibition apPOL 180',"[1]; DRC-2, 180', concentration 40",22%
same,% inhibition apPOL 180',"[1]; DRC-2, 180', concentration 80",36%
same,% inhibition ApPOL 90',[1]; conc 2.5 (unit not given); 90'; DRC-2,9%
same,% inhibition ApPOL 90',[1]; conc 5 (unit not given); 90'; DRC-2,9%
same,% inhibition Apol 40',[1]; conc 10 (unit not given); 40'; DRC-2,22%
same,% inhibition Apo pol 5',[1]; conc 20 (unit not given); 5'; DRC-2,39%
same,% inhibition Apol 40',[1]; conc 40 (unit not given); 40'; DRC-2,39%
same,% inhibition apPOL 180',[1]; conc 40 (unit not given); 180'; DRC-2,22%
same,% inhibition Apo pol 5',[1]; conc 80 (unit not given); 5'; DRC-2,49%
same,% inhibition Apol 40',[1]; conc 80 (unit not given); 40'; DRC-2,49%
same,DNA Pol,"[1]; primary screen hit value, DNA Pol (186 hits); 90 min, 10 µM",33
